Measurements as given in article PMC9841589, “Identification of 2-Aminoacyl-1,3,4-thiadiazoles as Prostaglandin E2 and Leukotriene Biosynthesis Inhibitors” (ACS Medicinal Chemistry Letters, 2022).

Key:
[1] = tested on: LPS-stimulated J774A.1 macrophages; experiment: Determination of IL-6 and PGE2 in murine macrophages; assay type: cell-based, mouse; settings: J774A.1, LPS 10 μg/mL, compound 1 μM, 24 h
Method: LOX product analysis, using an MRM method with diagnostic ion fragments and identification, was performed as described previously.922 Determination of IL-6 and PGE2 in murine macrophages Mouse macrophage cell line (J774A.1, ATCC® TIB-67™) was cultured in DMEM supplemented with FBS (ATCC® 30-2020™) to a final concentration of 10%. Cells were seeded in petri culture (100 × 20 mm, Falcon ®) at a density of 5 × 10^5 cells per dish and allowed to grow for dishes 24 h. The medium was then replaced, and cells were treated with LPS (10 ) in the presence or absence of μg/ml compounds 3, 6, 7, 9 (1 µM). Following incubations of 24 h, cells were collected with a cell scraper and, after centrifugation at 14000 × g for 10 min at 4 °C, the supernatant was collected and stored at −80°C for ELISA analysis 1023.

Human recombinant sEH = target: T1, Human recombinant sEH (Homo sapiens, UniProt P34913); experiment: Activity assay of human recombinant sEH; assay type: biochemical; settings: percentage of uninhibited control (100%), n = 3, n.i.: no inhibitory activity observed, read-out: sEH residual activity (%)
T1 construct: made in house; host or cells: Sf9 cells infected with a baculovirus provided by Dr. B. Hammock
T1 sequence (P34913 1-555): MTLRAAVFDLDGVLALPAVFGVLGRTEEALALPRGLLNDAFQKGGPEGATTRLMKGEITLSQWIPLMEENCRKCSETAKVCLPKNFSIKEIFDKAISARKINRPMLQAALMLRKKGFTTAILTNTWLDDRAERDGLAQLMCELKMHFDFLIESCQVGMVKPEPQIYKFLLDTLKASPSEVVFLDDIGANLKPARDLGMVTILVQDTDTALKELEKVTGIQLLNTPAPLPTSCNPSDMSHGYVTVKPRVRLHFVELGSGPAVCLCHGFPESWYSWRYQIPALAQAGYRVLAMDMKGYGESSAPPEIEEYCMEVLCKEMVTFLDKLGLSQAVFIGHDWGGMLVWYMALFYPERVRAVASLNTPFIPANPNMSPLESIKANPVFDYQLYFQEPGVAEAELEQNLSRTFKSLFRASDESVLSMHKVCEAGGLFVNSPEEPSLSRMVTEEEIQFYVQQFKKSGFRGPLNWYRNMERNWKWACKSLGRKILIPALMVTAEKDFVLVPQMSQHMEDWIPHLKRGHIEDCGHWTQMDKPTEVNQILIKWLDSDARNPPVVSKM
Method: 8) plus 5 mM glutathione, 100 µM EDTA and 5 µM hemoglobin) to a final concentration of 50 U/mL for COX-1 and 20 U/mL for COX-2, and pre-incubated with test compounds 3, 6, 7, and 9 (10 µM) or vehicle (0.1% DMSO) over 5 min at rt. After 1 min at 37 °C, reactions were started after addition of arachidonic acid to a final concentration of 5 µM for COX-1 and 2 µM for COX-2. After 5 min at 37 °C, 1 mL of ice-cold methanol was added for stopping the reactions on ice. Then, PGB 1 as internal standard and 530 µl PBS plus HCl were added, and solid-phase extraction was performed as reported before.4-6, 17-19 COXs product formation (12-HHT) was determined using RP-HPLC. 4-6, 17-19 Indomethacin (10 µM) and celecoxib (5 µM) were used as reference drugs.
Expression, purification and activity assay of human recombinant sEH
Human recombinant sEH was expressed in Sf9 cells and was infected using a baculovirus, provided by Dr. B. Hammock, University of California, Davis, CA. After 72 hours, cells were pelleted and sonicated (3 × 10 sec) at 4 °C in lysis buffer (50 mM NaHPO 4, pH = 8, 300 mM NaCl, 10% glycerol, 1 mM EDTA, 1 mM phenylmethanesulfonyl fluoride, 10 µg/mL of leupeptin, and 60 µg/mL of soybean trypsin inhibitor). Lysates were centrifuged over 60 min at 4 °C (100,000 × g), and supernatants were collected and submitted to a benzylthio-sepharose-affinity chromatography for sEH purification by elution with 4-fluorochalcone oxide in PBS plus 1 mM DTT and 1 mM EDTA.720 Bio-Rad protein detection kit (Bio-Rad Laboratories, Munich, Germany) was used for total protein on dialyzed and concentrated (Millipore Amicon-Ultra-15 centrifugal filter) enzyme solution and a fluorescence-based assay was used to define the epoxide hydrolase activity. 5,618, 19 Then, sEH was diluted in Tris buffer (25 mM, pH = 7) supplemented with 0.1 mg/mL of BSA to an appropriate enzyme concentration and pre-incubated with test compounds 3, 6, 7, 9 (10 µM) or vehicle (0.1% DMSO) for 15 min at rt. 50 µM 3-phenyl-cyano(6-methoxy-2-naphthalenyl)methyl ester-2-oxiraneacetic acid (PHOME), a non-fluorescent compound, was added for starting the reaction.
PHOME is enzymatically converted into a fluorescent compound, 6-methoxy-naphtaldehyde, detectable by using a spectrofluorometer setting λ em = 465 nm, λ ex = 330 nm. After 60 min, ZnSO 4 […]
(200 mM) was added for stopping the reaction, and then fluorescence was detected. AUDA (12-(3-adamantan-1-yl-ureido)-dodecanoic acid) (100 nM) was used as reference drug.
Human neutrophils and monocytes were freshly isolated from leukocyte concentrates obtained from the Institute of Transfusion Medicine, University Hospital Jena. […]

SMILES | IL-6 production [1] | PGE2 production [1] | remaining activity at 10 µM (Human recombinant sEH)
O=C(Nc1nnc(-c2ccc(-c3cccc(O)c3)cc2)s1)c1ccccc1Br [compound 3] | able to modulate | able to modulate | 96%
Nc1ccccc1-c1ccc(-c2nnc(NC(=O)c3c(Cl)ccnc3Cl)s2)cc1 [compound 9] | – | – | 83.9%
Nc1ccccc1-c1ccc(-c2nnc(NC(=O)c3ccccc3Br)s2)cc1 [compound 7] | – | displayed a similar activity only in terms of PGE2 modulation | 164%
Cc1cc(C(=O)Nc2nnc(-c3ccc(-c4ccccc4N)cc3)s2)cc(Cl)n1 [compound 6] | – | – | 67.7%
